These results are taken from PMC4876051 (Clinical pharmacokinetics, 2016).

Like-named read-outs stand apart in the source and are kept apart here. Some results are limits rather than exact numbers.

What is called IC50 is the concentration needed to halve the response being measured. The AUC(0-inf) is the area under the concentration-time curve extrapolated to infinity. Broadly, the Tmax is the time from dosing to the highest level.

The subject of data set [1] is creatinine (an endogenous substrate of MATE1). Conditions: 12h after famotidine (200 mg) alone vs pre-famotidine.
The conditions of data set [2]: for Maximal concentration of unbound famotidine in plasma ([I], Cmax,u): healthy volunteers n=12, oral famotidine 160 to 200 mg doses.
Data set [3] relates to creatinine plasma levels. Conditions: with famotidine.
Data set [4] concerns the target T1, MATE2 (Homo sapiens, UniProt Q86VL8). The data set can be described thus: cell-based.
A short description of data set [5]: Tolerability in the clinical study. Particulars: twelve healthy volunteers; famotidine Cmax,u about 1.0 μM.
In data set [6] the target is T2, MATE1 (Homo sapiens, UniProt Q96FL8). Conditions: MATE1 vs OCT2.
Data set [7] has as its target T2, MATE1. Description: cell-based.
Data set [8] has as its target T3, OCT2 (Homo sapiens, UniProt O15244). Conditions: overexpressing cell line; Supplemental Fig. 4.
Data set [9] concerns the target plasma membrane monoamine transporter (PMAT, SLC29A4) (Homo sapiens, UniProt Q7RTT9). Conditions: Supplemental Fig. 7.
Data set [10] concerns the target T4, OCT1 (Homo sapiens, UniProt O15245). Description: cell-based.
In data set [11] the test system is plasma glucose. Description: Oral glucose tolerance test. Set-up: AUCglu,0.5, GMR (90%CI), metformin vs baseline / AUCglu,3, GMR (90%CI), metformin vs baseline: unit not given beside the values.
Data set [12] deals with T3, OCT2. Description: cell-based.
The conditions of data set [13]: cited from earlier work.
For data set [14] the following is noted: cited from earlier work. This is another data set of the same source.
Data set [15] concerns the target T4, OCT1. Particulars: overexpressing cell line; Supplemental Fig. 4.
The nature of data set [16]: clinical. Particulars: human, plasma and urine, oral, 200 mg.
Data set [17] addresses T2, MATE1. Particulars: overexpressing cell line; Supplemental Fig. 4.
Data set [18] deals with T1, MATE2. Conditions: overexpressing cell line; Supplemental Fig. 4.
The conditions of data set [19]: cited from earlier work. The source holds these as a separate data set.
A short description of data set [20]: clinical. Particulars: human.
Setting [21] is: population PK model, twelve healthy volunteers.
Setting [22] is: glucose AUC 0 to 0.5h after 75 g glucose, n=12.
Setting [23] is: glucose AUC 0 to 3h after 75 g glucose, n=12.
The mark [24] stands for this setting: metformin vs baseline (no drug).

T2 sequence (Q96FL8 whole entry): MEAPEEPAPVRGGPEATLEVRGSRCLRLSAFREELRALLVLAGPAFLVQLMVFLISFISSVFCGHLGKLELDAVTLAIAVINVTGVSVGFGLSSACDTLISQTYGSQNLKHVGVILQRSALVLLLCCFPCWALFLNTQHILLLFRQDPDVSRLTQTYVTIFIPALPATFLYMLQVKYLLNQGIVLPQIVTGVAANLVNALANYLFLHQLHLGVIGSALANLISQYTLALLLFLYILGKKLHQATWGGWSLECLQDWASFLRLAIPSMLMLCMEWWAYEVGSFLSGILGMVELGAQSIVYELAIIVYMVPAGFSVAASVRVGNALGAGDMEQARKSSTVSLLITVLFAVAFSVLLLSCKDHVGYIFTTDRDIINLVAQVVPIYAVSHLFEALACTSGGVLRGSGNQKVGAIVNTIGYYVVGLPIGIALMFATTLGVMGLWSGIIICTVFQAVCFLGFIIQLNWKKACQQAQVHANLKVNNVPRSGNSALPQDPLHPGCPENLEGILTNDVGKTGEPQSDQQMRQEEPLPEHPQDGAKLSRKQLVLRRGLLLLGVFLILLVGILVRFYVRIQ
T4 sequence (O15245 whole entry): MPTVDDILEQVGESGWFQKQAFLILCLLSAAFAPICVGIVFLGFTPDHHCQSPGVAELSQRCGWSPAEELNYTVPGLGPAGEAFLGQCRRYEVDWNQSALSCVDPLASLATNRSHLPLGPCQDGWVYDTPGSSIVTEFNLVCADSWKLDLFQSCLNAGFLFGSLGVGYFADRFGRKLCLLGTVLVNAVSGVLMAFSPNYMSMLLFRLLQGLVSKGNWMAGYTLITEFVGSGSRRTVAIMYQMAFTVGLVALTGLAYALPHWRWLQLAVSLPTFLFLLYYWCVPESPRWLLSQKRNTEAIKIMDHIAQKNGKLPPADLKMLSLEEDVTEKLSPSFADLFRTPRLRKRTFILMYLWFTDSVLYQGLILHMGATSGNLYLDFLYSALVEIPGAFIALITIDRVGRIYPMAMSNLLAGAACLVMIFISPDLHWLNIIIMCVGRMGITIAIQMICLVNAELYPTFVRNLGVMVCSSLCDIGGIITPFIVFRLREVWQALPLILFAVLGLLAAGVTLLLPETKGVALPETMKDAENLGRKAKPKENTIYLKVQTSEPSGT
T3 sequence (O15244 whole entry): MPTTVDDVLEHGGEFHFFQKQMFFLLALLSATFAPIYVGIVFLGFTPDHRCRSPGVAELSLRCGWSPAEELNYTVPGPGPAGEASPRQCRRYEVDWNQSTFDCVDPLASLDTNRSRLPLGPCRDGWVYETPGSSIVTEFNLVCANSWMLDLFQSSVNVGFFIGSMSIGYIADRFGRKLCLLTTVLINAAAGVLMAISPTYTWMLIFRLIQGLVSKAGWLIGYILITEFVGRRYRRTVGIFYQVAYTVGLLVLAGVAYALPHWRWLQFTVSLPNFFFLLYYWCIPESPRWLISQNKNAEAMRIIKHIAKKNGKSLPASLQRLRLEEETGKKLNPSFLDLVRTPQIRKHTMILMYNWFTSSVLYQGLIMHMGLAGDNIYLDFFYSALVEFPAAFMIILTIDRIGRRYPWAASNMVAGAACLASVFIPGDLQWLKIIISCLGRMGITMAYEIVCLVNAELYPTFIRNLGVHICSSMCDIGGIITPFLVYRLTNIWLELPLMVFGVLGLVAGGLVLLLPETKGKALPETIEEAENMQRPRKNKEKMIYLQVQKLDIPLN
T1 sequence (Q86VL8 whole entry): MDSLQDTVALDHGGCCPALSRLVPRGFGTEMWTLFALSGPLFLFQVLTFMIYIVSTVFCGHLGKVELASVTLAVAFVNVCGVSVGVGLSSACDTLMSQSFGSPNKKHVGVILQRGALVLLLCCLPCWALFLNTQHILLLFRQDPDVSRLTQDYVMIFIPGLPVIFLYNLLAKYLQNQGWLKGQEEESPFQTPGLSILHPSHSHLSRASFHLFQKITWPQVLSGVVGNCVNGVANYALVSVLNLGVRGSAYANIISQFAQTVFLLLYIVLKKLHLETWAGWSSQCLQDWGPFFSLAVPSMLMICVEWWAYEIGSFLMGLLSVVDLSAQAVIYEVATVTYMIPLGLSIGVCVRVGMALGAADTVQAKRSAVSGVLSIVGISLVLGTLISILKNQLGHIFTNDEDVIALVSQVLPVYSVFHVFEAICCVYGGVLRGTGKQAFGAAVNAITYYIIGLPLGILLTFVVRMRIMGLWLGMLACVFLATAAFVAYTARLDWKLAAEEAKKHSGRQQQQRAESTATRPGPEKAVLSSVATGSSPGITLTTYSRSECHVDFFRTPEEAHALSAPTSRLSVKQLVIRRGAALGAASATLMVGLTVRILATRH
Chain of plasma membrane monoamine transporter (PMAT, SLC29A4) (Q7RTT9 whole entry): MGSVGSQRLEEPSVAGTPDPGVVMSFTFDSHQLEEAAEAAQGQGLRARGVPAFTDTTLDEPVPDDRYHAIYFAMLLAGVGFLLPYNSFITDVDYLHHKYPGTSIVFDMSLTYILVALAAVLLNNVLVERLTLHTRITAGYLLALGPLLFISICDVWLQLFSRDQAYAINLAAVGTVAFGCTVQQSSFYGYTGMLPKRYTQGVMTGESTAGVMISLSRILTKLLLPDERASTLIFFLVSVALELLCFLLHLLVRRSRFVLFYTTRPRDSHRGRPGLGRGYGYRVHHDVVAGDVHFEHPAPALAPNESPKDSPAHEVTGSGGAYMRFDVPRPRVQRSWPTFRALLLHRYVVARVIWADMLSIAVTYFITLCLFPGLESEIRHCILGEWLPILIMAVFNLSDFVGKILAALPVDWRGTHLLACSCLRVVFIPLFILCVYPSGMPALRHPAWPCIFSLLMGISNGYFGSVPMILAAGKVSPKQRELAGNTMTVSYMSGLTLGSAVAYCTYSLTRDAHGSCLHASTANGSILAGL

With `NC(N)=Nc1nc(CSCCC(N)=NS(N)(=O)=O)cs1` [Famotidine, famotidine], the “Creatinine concentrations in plasma” value in data set [1] is on record as “significantly higher”. In data set [2], the “Maximal concentration of unbound famotidine in plasma ([I], Cmax,u)” value was found to be 1000 nM. Moreover, the “Maximal concentration of unbound famotidine in plasma ([I], Cmax,u)” value in [2] (listed as famotidine) worked out at 1000 ± 64 nM. Also, in [2] (population PK model, (R.S.E)), the “BSV-CL (between subject variability)” value was 6.4% (25%), the “BSV-F (between subject variability)” value is given as 26% (53%) and the “BSV-Lagtime (between subject variability)” value is recorded as 77% (99%). In addition, in data set [2] (setting [21]), the “CL/F, population estimate (R.S.E)” value is 116 (7.2%) L/h; the “Lag time, population estimate (R.S.E)” value is 0.27 (32%) h; the “V/F, population estimate (R.S.E)” value was 715 (6.0%) L; the “ka, population estimate (R.S.E)” value was 1.14 (11%) h^−1. In [3], the “BSV-Baseline, creatinine model (R.S.E.)” value is 18 (19%) and the “BSV-Phase Shift, creatinine model (R.S.E.)” value was 2.7 (89%). In addition, in data set [3] (diurnal rhythm model), the “Creatinine plasma Amplitude 1, typical value (R.S.E.)” value is given as 1.15 (49%) mg/L and the “Creatinine plasma Phase Shift 1, typical value (R.S.E.)” value is 2.37 (2.6%) mg/L. Besides, in data set [3] (twelve healthy volunteers), the “Creatinine plasma Baseline, typical value (R.S.E.)” value is on record as 8.07 (5.5%) mg/L. This compound displayed an IC50 in [4] of 2.5 µM. Further, the “Tolerability during co-administration with metformin” value in data set [5] is recorded as “well tolerated”. In data set [6], the “Selectivity of inhibition of metformin transport for MATE1 over OCT2” value is given as “over 200 fold”. Besides, the IC50 in [7] amounted to 0.25 µM. Moreover, the “Substrate of OCT2” value in data set [8] was “unequivocal substrate”. Further, the “Inhibition of metformin transport by PMAT” value in [9] is given as “potent inhibitor”. Moreover, half-maximal inhibition in data set [10] (IC50) was put at 19 µM. Besides, the “Effect of famotidine alone on glucose AUC” value in data set [11] (OGTT, data not shown) is given as “no significant effect”. In data set [12], this compound returned a half-maximal inhibitory concentration (IC50) of 66 µM. Also, the “Bound to plasma proteins” value in data set [13] is given as “approximately 20%”. For the same compound, in data set [14], the “Eliminated by metabolic route” value was 30–35% and the “Eliminated by renal route” value was 65–70%. The “Substrate of OCT1” value in data set [15] is “unequivocal substrate”. Moreover, in data set [16], the CL renal is 290 ± 32 mL/min. The “Substrate of MATE1” value in data set [17] is “unequivocal substrate”. The “Substrate of MATE2” value in data set [18] was “unequivocal substrate”.

Turning to `CN(C)C(=N)N=C(N)N` [Metformin, metformin], in data set [11] (setting [22]), the “AUCglu,0.5, mean ± SEM” value came out at 55 ± 1.5 mg·h/dL and the “AUCglu,0.5, median” value was determined as 55 mg·h/dL. Further, in data set [11] (setting [23]), the “AUCglu,3, mean ± SEM” value worked out at 356 ± 14 mg·h/dL and the “AUCglu,3, median” value came to 343 mg·h/dL. Moreover, in data set [11] (setting [24]), the “AUCglu,0.5, GMR (90%CI), metformin vs baseline” value is given as 0.94 (0.90–0.98) and the “AUCglu,3, GMR (90%CI), metformin vs baseline” value was 0.99 (0.94–1.04). Besides, the “AUCglu,0.5, GMR (90%CI), metformin vs baseline” value in [11] (metformin vs baseline (no drug), listed as metformin) was 0.94 [0.90–0.98]. Moreover, the “Ionized in blood and in urine at physiologic pH” value in [19] is reported as > 99%. The compound also yielded a CL renal in data set [20] (plasma and urine, oral) of 767 ± 70 mL/min. This compound also yielded an area under the curve AUC(0-inf) in data set [20] (plasma, oral) of 14600 ng·h/mL. Further, in data set [20] (plasma, po, 1850 mg), the Tmax was found to be 2 ± 0.24 h.
